Measurements published in ChEMBL document CHEMBL1150971, “Crystal structures of catalytic subunit of cAMP-dependent protein kinase in complex with isoquinolinesulfonyl protein kinase inhibitors H7, H8, and H89. Structural implications for selectivity” (J Biol Chem, 1996).

Legend:
[1] = target: cAMP-dependent protein kinase alpha-catalytic subunit (Oryctolagus cuniculus, UniProt Q95J97); assay: Inhibitory constant against cAPK (PKA)
[2] = Inhibitory constant against cGPK (PKG); set-up: species or system Sus scrofa
[3] = target: Myosin light chain kinase, smooth muscle (Gallus gallus, UniProt P11799); assay: Inhibitory constant against MLCK
[4] = target: Casein kinase II (Homo sapiens, UniProt P19784+P67870+P68400); assay: Inhibitory constant against CK2; type: protein-complex assay, Oryctolagus cuniculus
[5] = Inhibitory constant against CK1; set-up: species or system Rattus norvegicus
[6] = target: Protein kinase C (PKC); assay: Inhibitory constant against PKC; type: protein assay, Oryctolagus cuniculus

Chain of Myosin light chain kinase, smooth muscle (P11799 whole entry): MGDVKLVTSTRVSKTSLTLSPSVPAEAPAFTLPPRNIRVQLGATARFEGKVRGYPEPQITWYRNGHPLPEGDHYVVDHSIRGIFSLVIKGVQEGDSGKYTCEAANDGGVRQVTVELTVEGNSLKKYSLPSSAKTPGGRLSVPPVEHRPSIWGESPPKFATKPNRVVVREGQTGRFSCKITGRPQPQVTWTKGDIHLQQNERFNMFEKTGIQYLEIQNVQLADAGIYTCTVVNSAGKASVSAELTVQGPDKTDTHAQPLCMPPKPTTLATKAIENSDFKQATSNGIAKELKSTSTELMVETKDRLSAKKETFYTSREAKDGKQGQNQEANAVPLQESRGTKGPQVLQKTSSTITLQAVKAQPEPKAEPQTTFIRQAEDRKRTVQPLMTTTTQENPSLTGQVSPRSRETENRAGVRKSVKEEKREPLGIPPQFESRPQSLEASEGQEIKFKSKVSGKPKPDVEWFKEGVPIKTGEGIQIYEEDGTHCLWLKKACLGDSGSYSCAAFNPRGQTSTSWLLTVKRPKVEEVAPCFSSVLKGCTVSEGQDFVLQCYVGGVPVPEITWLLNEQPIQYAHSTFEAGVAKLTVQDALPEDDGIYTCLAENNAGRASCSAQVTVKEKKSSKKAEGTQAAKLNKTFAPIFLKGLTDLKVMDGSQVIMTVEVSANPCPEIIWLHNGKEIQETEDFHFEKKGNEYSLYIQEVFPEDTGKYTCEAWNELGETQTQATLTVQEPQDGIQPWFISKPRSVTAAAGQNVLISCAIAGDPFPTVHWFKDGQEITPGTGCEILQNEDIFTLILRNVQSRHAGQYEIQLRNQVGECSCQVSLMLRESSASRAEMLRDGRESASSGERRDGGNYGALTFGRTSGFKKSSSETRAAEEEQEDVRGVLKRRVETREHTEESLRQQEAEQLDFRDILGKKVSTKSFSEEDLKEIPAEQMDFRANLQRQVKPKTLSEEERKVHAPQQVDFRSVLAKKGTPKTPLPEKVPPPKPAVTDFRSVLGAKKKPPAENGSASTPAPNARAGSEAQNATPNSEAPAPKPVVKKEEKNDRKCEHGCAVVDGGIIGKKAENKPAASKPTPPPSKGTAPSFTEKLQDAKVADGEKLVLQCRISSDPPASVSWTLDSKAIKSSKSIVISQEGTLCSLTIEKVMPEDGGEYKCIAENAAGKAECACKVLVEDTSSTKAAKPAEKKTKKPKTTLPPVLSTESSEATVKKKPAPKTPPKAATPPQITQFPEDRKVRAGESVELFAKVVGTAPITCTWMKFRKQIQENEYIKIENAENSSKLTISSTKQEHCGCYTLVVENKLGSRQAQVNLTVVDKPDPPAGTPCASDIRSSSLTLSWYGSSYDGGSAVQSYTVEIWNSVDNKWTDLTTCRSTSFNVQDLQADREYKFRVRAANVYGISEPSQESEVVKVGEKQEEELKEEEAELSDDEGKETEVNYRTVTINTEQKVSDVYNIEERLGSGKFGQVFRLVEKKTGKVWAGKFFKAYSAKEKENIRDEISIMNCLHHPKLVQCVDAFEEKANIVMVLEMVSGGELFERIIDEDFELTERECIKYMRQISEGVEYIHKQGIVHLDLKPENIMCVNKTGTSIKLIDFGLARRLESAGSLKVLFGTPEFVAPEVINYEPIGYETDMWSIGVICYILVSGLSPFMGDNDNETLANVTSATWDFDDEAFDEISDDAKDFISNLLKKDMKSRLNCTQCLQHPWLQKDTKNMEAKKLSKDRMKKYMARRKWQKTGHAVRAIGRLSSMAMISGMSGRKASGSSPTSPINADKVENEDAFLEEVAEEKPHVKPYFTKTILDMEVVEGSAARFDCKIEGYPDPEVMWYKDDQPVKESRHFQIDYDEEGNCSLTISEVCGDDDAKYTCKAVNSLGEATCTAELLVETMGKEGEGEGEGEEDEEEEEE
Chain of Casein kinase II (P67870 whole entry): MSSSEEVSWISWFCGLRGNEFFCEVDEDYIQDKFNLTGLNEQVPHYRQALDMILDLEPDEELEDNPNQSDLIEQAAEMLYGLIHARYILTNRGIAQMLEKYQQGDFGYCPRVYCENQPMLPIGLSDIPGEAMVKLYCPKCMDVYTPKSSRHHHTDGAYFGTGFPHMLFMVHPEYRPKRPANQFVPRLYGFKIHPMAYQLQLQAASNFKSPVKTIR
Chain of Casein kinase II (P68400 whole entry): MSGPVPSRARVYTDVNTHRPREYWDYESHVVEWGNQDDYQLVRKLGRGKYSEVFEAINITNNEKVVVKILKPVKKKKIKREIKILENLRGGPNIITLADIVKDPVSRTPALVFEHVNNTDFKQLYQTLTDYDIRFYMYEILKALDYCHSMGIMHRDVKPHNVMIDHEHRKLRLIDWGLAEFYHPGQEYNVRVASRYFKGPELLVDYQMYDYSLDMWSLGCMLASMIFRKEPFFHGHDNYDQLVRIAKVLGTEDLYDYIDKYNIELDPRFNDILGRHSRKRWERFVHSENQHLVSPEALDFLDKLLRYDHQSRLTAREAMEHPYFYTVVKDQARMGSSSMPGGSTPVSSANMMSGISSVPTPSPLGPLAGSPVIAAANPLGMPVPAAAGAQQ
Chain of Casein kinase II (P19784 whole entry): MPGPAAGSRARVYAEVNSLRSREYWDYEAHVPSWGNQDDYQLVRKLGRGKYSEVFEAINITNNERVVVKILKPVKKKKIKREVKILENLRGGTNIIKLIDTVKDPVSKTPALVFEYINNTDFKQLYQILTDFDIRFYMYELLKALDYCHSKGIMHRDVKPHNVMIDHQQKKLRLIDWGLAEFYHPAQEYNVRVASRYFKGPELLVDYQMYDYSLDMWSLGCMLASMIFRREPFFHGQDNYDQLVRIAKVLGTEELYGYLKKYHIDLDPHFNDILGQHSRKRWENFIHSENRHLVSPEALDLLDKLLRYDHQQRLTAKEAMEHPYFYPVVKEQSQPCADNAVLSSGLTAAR

Structure (SMILES) | Ki [1] | Ki [2] | Ki [3] | Ki [4] | Ki [5] | Ki [6]
CNCCNS(=O)(=O)c1cccc2cnccc12 | 1.2 µM | 0.48 µM | 68 µM | 950 µM | 133 µM | 15 µM
C[C@H]1CNCCN1S(=O)(=O)c1cccc2cnccc12 | – | 5.8 µM | 97 µM | 780 µM | 100 µM | 6 µM
O=S(=O)(NCCNC/C=C/c1ccc(Br)cc1)c1cccc2cnccc12 | – | – | 28.3 µM | – | – | –
